The results in this text go back to patent publication US20240343681A1, “MOLECULES HAVING PESTICIDAL UTILITY AND INTERMEDIATES AND PROCESSES RELATED THERETO” (priority 2021, published 2024).

Structures are written as SMILES.

For the assay, the system named is Beet Armyworm (Spodoptera exigua, LAPHEG) second instar larva. Description: Bioassay on beet armyworm (BAW), 128-well diet tray assay. In kind it is in vivo. The following applies: 50 μg/cm^2 on artificial diet, 25° C., five days. On the procedure: Example A: Bioassays on Beet Armyworm (Spodoptera exigua, LAPHEG) (“BAW”) and Cabbage Looper (Trichoplusia ni, TRIPNI) (“CL”)
Bioassays on BAW were conducted using a 128-well diet tray assay. One second instar BAW larva was placed in each well (8 wells total) of the diet tray that had been previously filled with 1 mL of artificial diet to which 50 μg/cm^2 of the test molecule (dissolved in 50 μL of 90:10 acetone-water mixture) had been applied (to each of eight wells) and then allowed to dry. Trays were covered with a clear self-adhesive cover, vented to allow gas exchange, and held at 25° C., 14:10 light-dark for five days. Percent mortality was recorded for the larvae in each well; activity in the eight wells was then averaged.
As to `O=C(CC(F)(F)F)Nc1cc(NC(=O)[C@H]2[C@H](c3cc(Cl)cc(Cl)c3)C2(Cl)Cl)ccc1Cl` (racemic) [F5, trans-rac-2,2-Dichloro-N-(4-chloro-3-(3,3,3-trifluoropropanamido)phenyl)-3-(3,5-dichlorophenyl)cyclopropane-1-carboxamide], the “activity against BAW (percent mortality, averaged over eight wells)” value is “exhibited activity”.

For `CC(C(=O)Nc1cc(NC(=O)C2C(c3cc(Cl)cc(Cl)c3)C2(Cl)Cl)ccc1Cl)C(F)(F)F` (racemic) [F6, trans-rac-2,2-Dichloro-N-(4-chloro-3-(3,3,3-trifluoro-2-methylpropanamido)phenyl)-3-(3,5-dichlorophenyl)cyclopropane-1-carboxamide], the “activity against BAW (percent mortality, averaged over eight wells)” value is reported as “exhibited activity”.

With `CC(CC(F)(F)F)C(=O)Nc1cc(NC(=O)C2C(c3cc(Cl)cc(Cl)c3)C2(Cl)Cl)ccc1Cl` (racemic) [F8, trans-rac-2,2-Dichloro-N-(4-chloro-3-(4,4,4-trifluoro-2-methylbutanamido)phenyl)-3-(3,5-dichlorophenyl)cyclopropane-1-carboxamide], the “activity against BAW (percent mortality, averaged over eight wells)” value is “exhibited activity”.

On to `CC(CC(=O)Nc1cc(NC(=O)C2C(c3cc(Cl)cc(Cl)c3)C2(Cl)Cl)ccc1Cl)C(F)(F)F` (racemic) [F9, trans-rac-2,2-Dichloro-N-(4-chloro-3-(4,4,4-trifluoro-3-methylbutanamido)phenyl)-3-(3,5-dichlorophenyl)cyclopropane-1-carboxamide], for which the “activity against BAW (percent mortality, averaged over eight wells)” value was “exhibited activity”.

`O=C(Nc1cc(NC(=O)[C@H]2[C@H](c3cc(Cl)cc(Cl)c3)C2(Cl)Cl)ccc1Cl)c1ccc(F)cc1F` (racemic) [F24, trans-rac-N-(2-Chloro-5-(2,2-dichloro-3-(3,5-dichlorophenyl)cyclopropane-1-carboxamido)phenyl)-2,4-difluorobenzamide]: the “activity against BAW (percent mortality, averaged over eight wells)” value is “exhibited activity”.

As for `O=C(Nc1cc(NC(=O)[C@H]2[C@H](c3cc(Cl)cc(Cl)c3)C2(Cl)Cl)ccc1Cl)c1cc(F)cc(F)c1` (racemic) [F26, trans-rac-N-(2-chloro-5-(2,2-dichloro-3-(3,5-dichlorophenyl)cyclopropane-1-carboxamido)phenyl)-3,5-difluorobenzamide], the “activity against BAW (percent mortality, averaged over eight wells)” value is “exhibited activity”.

`Cc1cc(C#N)ccc1C(=O)Nc1cc(NC(=O)[C@H]2[C@H](c3cc(Cl)cc(Cl)c3)C2(Cl)Cl)ccc1Cl` (racemic) [F27, trans-rac-N-(2-Chloro-5-(2,2-dichloro-3-(3,5-dichlorophenyl)cyclopropane-1-carboxamido)phenyl)-4-cyano-2-methylbenzamide]: the “activity against BAW (percent mortality, averaged over eight wells)” value is “exhibited activity”.

For `O=C(Nc1cc(NC(=O)[C@H]2[C@H](c3cc(Cl)cc(Cl)c3)C2(Cl)Cl)ccc1Cl)c1ccc(F)cn1` (racemic) [F30, trans-rac-N-(2-Chloro-5-(2,2-dichloro-3-(3,5-dichlorophenyl)cyclopropane-1-carboxamido)phenyl)-5-fluoropicolinamide], the “activity against BAW (percent mortality, averaged over eight wells)” value is “exhibited activity”.

In the case of `O=C(Nc1cc(NC(=O)[C@H]2[C@H](c3cc(Cl)cc(Cl)c3)C2(Cl)Cl)ccc1Cl)c1ccncn1` (racemic) [F32, trans-rac-N-(2-Chloro-5-(2,2-dichloro-3-(3,5-dichlorophenyl)cyclopropane-1-carboxamido)phenyl)pyrimidine-4-carboxamide], the “activity against BAW (percent mortality, averaged over eight wells)” value is recorded as “exhibited activity”.

`O=C(Nc1cc(NC(=O)[C@H]2[C@H](c3cc(Cl)cc(Cl)c3)C2(Cl)Cl)ccc1Cl)c1ccco1` (racemic) [F34, trans-rac-N-(2-Chloro-5-(2,2-dichloro-3-(3,5-dichlorophenyl)cyclopropane-1-carboxamido)phenyl)furan-2-carboxamide]: the “activity against BAW (percent mortality, averaged over eight wells)” value is “exhibited activity”.

For the compound `O=C(Nc1cc(NC(=O)[C@H]2[C@H](c3cc(Cl)cc(Cl)c3)C2(Cl)Cl)ccc1Cl)c1nc(C(F)(F)F)cs1` (racemic) [F36, trans-rac-N-(2-Chloro-5-(2,2-dichloro-3-(3,5-dichlorophenyl)cyclopropane-1-carboxamido)phenyl)-4-(trifluoromethyl)thiazole-2-carboxamide], the “activity against BAW (percent mortality, averaged over eight wells)” value is recorded as “exhibited activity”.

Consider `O=C(Nc1cc(NC(=O)[C@H]2[C@H](c3cc(Cl)cc(Cl)c3)C2(Cl)Cl)ccc1Cl)c1cc(=O)[nH]o1` (racemic) [F37, trans-rac-N-(2-Chloro-5-(2,2-dichloro-3-(3,5-dichlorophenyl)cyclopropane-1-carboxamido)phenyl)-3-oxo-2,3-dihydroisoxazole-5-carboxamide], for which the “activity against BAW (percent mortality, averaged over eight wells)” value is given as “exhibited activity”.

Take `O=C(Nc1cc(NC(=O)C2C(c3cc(Cl)cc(Cl)c3)C2(Cl)Cl)ccc1Cl)C1CCCO1` (racemic) [F38, trans-rac-N-(2-Chloro-5-(2,2-dichloro-3-(3,5-dichlorophenyl)cyclopropane-1-carboxamido)phenyl)tetrahydrofuran-2-carboxamide]: the “activity against BAW (percent mortality, averaged over eight wells)” value was “exhibited activity”.

In the case of `CC(Oc1ccccc1)C(=O)Nc1cc(NC(=O)C2C(c3cc(Cl)cc(Cl)c3)C2(Cl)Cl)ccc1Cl` (racemic) [F41, trans-rac-2,2-Dichloro-N-(4-chloro-3-(2-phenoxypropanamido)phenyl)-3-(3,5-dichlorophenyl)cyclopropane-1-carboxamide], the “activity against BAW (percent mortality, averaged over eight wells)” value is on record as “exhibited activity”.

For `N#CC1(C(=O)Nc2cc(NC(=O)[C@H]3[C@H](c4cc(Cl)cc(Cl)c4)C3(Cl)Cl)ccc2Cl)CC1` (racemic) [F43, trans-rac-2,2-Dichloro-N-(4-chloro-3-(1-cyanocyclopropane-1-carboxamido)phenyl)-3-(3,5-dichlorophenyl)cyclopropane-1-carboxamide], the “activity against BAW (percent mortality, averaged over eight wells)” value is “exhibited activity”.

With `O=C(Nc1cc(NC(=O)C2C(c3cc(Cl)cc(Cl)c3)C2(Cl)Cl)ccc1Cl)C1CC1(F)F` (racemic) [F44, trans-rac-2,2-Dichloro-N-(4-chloro-3-(2,2-difluorocyclopropane-1-carboxamido)phenyl)-3-(3,5-dichlorophenyl)cyclopropane-1-carboxamide], the “activity against BAW (percent mortality, averaged over eight wells)” value is “exhibited activity”.

Take `C=CCC(=O)Nc1cc(NC(=O)[C@H]2[C@H](c3cc(Cl)cc(Cl)c3)C2(Cl)Cl)ccc1Cl` (racemic) [F47, trans-rac-N-(3-But-3-enamido-4-chlorophenyl)-2,2-dichloro-3-(3,5-dichlorophenyl)cyclopropane-1-carboxamide]: the “activity against BAW (percent mortality, averaged over eight wells)” value was “exhibited activity”.

For the compound `O=C(Cc1c(F)cc(F)cc1F)Nc1cc(NC(=O)[C@H]2[C@H](c3cc(Cl)cc(Cl)c3)C2(Cl)Cl)ccc1Cl` (racemic) [F49, trans-rac-2,2-Dichloro-N-(4-chloro-3-(2-(2,4,6-trifluorophenyl)acetamido)phenyl)-3-(3,5-dichlorophenyl)cyclopropane-1-carboxamide], the “activity against BAW (percent mortality, averaged over eight wells)” value is “exhibited activity”.
